Experimental data as given in patent US9801850B2, “Antibacterial agent” (OSAKA UNIVERSITY, priority 2009, dated 2017).
Values after ≈ are worked out from the molar mass of the structure shown.

Columns and labels:
[1] = tested on: MSSA clinical isolate No. 3; test: MIC, broth microdilution (Example 2, Table 6); format: cell-based, Staphylococcus aureus
[2] = tested on: MSSA clinical isolate No. 1; test: MIC, broth microdilution (Example 2, Table 6); format: cell-based, Staphylococcus aureus
[3] = tested on: S. aureus NCTC8325 (MSSA); test: MIC, broth microdilution (Example 2, Table 6); format: cell-based, Staphylococcus aureus
Protocol: (§1) Methicillin-susceptible Staphylococcus aureus (MSSA) NCTC8325 and methicillin-resistant Staphylococcus aureus (MRSA) ATCC43300 were used as bacteria. The bacteria of each type were cultured using Mueller-Hinton Broth (MH-broth, Difco) as a medium. Then, the minimum inhibitory concentration (MIC) of each of the EGCG derivatives was measured by a broth microdilution method in accordance with the Clinical and Laboratory Standards Institute (CLSI) guidelines (hereinafter the same).
(§2) First, each of the EGCG derivatives was dissolved in 100% dimethyl sulfoxide (DMSO, Wako Pure Chemical Industries, Ltd.) so that the concentration thereof became 5120 μg/ml. The resultant solution was diluted with DMSO or sterile distilled water so as to prepare two-fold dilution series of antibacterial agent solutions. […] Each of these antibacterial agent solutions was dispensed to wells of a 96-well plate. The concentration of the EGCG derivative in the antibacterial agent solution dispensed to the wells was set to be 10 times as high as the final concentration. On the other hand, the bacteria were cultured in the MH-broth at 37° C. overnight, and the thus-obtained pre-culture solution was diluted with a new MH-broth so that the concentration thereof in the MH-broth became 10^−4 (10^4-fold dilution), thus preparing a bacterial culture solution of about 1×10^5 CFU/ml (CFU: Colony Forming Unit, the number of viable cells). The bacterial culture solution was further added to each well, and the mixture was cultured at 37° C. for 18 hours. The ratio (volume ratio) between the antibacterial agent solution and the bacterial culture solution added to each well was set to 1:9 (the antibacterial agent solution:the bacterial culture solution), and the volume of the mixture of them per well was set to 100 μl in total. The final concentration of the EGCG derivative in the mixture was set to 8 μg/ml to 512 μg/ml, and the number of viable cells in the mixture was set to about 1×10^5 CFU/ml. Then, after the completion of the culture, the MIC was determined. Also, the turbidity (OD600 nm) was measured using a plate reader so as to identify minor differences.
(§3) Each of the EGCG derivatives was dissolved in 100% DMSO so that the concentration thereof became 1280 μg/ml. The thus-obtained solutions were diluted with sterile distilled water, thus preparing antibacterial agent solutions.
(§4) As Comparative Example 2, the same procedures as in Example 2 were performed, except that unsubstituted EGCG was used as an antibacterial agent instead of the EGCG derivatives of Example 2. Furthermore, as a control, the same procedures as in Example 2 were performed, except that sterile distilled water was used instead of the antibacterial agent solutions containing the EGCG derivatives.

MRSA ATCC43300 = test: MIC, broth microdilution (Example 2, Table 6); format: cell-based, Staphylococcus aureus
Protocol: as §1, §2, §3, §4

[4] = tested on: MRSA clinical isolate No. 7; test: MIC, broth microdilution (Example 2, Table 6); format: cell-based, Staphylococcus aureus
[5] = tested on: Methicillin-susceptible Staphylococcus aureus (MSSA) NCTC8325; test: MIC, broth microdilution (Example 1); format: cell-based; conditions: MH-broth, 37° C., 18 hours
Protocol: as §1, §2
as §4, with “1,” for “2,”, “1” for “2”, “1.” for “2.”, “water, 100% DMSO, or 50% DMSO” for “water”

[6] = tested on: Streptococcus pyogenes ATCC19615; test: Antibacterial spectrum MIC (Table 7); format: cell-based; conditions: Strepto Haemo supplement
Protocol: as §1, §2
(§5) Regarding the respective type strains shown in Tables 7 and 8 below, the MIC measurement was performed using the antibacterial agent solutions of Example 2 in the same manner as described in Section (2) of Example 1, except for the following. The antibacterial agent solutions were prepared by dissolving the EGCG derivatives of Example 2 in 100% DMSO and then diluting the resultant mixtures with sterile distilled water. The respective strains were derived from ATCC or NCTC. As Moraxella catarrhalis and Aspergillus fumigatus, clinical isolates thereof without an acquired resistance mechanism were used. For nutrient-rich bacteria, namely, Streptococcus pneumoniae ATCC49619, Streptococcus pyogenes ATCC19615, Streptococcus agalactiae ATCC13813, Moraxella catarrhalis, and Haemophilis influenzae ATCC49766, Strepto Haemo supplement (Eiken Chemical Co., Ltd.) was added to media for culturing them. The MIC measurement with respect to fungi was carried out by a broth microdilution method using a RPMI1640/MOPS (pH 7.0) medium in accordance with CLSI guidelines. About 2×10^3 cells/ml of fungi were inoculated to the medium. After the culture at 35° C. for 24 to 48 hours, the MIC was determined. Also, regarding the antibacterial agent solution of Comparative Example 2, the MIC was measured in the same manner.

[7] = tested on: Enterobacter cloacae ATCC13047; test: Antibacterial spectrum MIC (Table 7); format: cell-based
Protocol: as §1, §2, §5

[8] = tested on: Streptococcus pneumoniae ATCC49619; test: Antibacterial spectrum MIC (Table 7); format: cell-based; conditions: Strepto Haemo supplement
Protocol: as §1, §2, §5

[9] = tested on: Bacillus subtilus ATCC6051; test: Antibacterial spectrum MIC (Table 7); format: cell-based
Protocol: as §1, §2, §5

[10] = tested on: Escherichia coli ATCC25922; test: Antibacterial spectrum MIC (Table 7); format: cell-based
Protocol: as §1, §2, §5

[11] = tested on: Enterobacter aerogenes ATCC13048; test: Antibacterial spectrum MIC (Table 7); format: cell-based
Protocol: as §1, §2, §5

[12] = tested on: Staphylococcus epidermis ATCC14990; test: Antibacterial spectrum MIC (Table 7); format: cell-based; conditions: for MIC: Staphylococcus epidermis ATCC14990; for antibacterial effect: Staphylococcus epidermids ATCC14990, comparison among EGCG derivatives
Protocol: as §1, §2, §5

[13] = tested on: Enterococcus faecalis ATCC29212; test: Antibacterial spectrum MIC (Table 7); format: cell-based
Protocol: as §1, §2, §5

[14] = tested on: Yersinia enterocolitica ATCC9610; test: Antibacterial spectrum MIC (Table 7); format: cell-based
Protocol: as §1, §2, §5

Moraxella catarrhalis = test: Antibacterial spectrum MIC (Table 7); format: cell-based; conditions: Moraxella catarrhalis clinical isolate, Strepto Haemo supplement
Protocol: as §1, §2, §5

[15] = tested on: Serratia marcescens ATCC13880; test: Antibacterial spectrum MIC (Table 7); format: cell-based
Protocol: as §1, §2, §5

[16] = tested on: Klebsiella oxytoca ATCC8724; test: Antibacterial spectrum MIC (Table 7); format: cell-based
Protocol: as §1, §2, §5

Neisseria meningitidis = test: Antibacterial spectrum MIC (Table 7); format: cell-based
Protocol: as §1, §2, §5

[17] = tested on: MRSA clinical isolate No. 6; test: MIC, broth microdilution (Example 2, Table 6); format: cell-based, Staphylococcus aureus

| Compound | MIC [1] | MIC [2] | MIC [3] | MIC (MRSA ATCC43300) | MIC [4] | MIC [5] | MIC [6] | MIC [7] | MIC [8] | MIC [9] | MIC [10] | MIC [11] | MIC [12] | MIC [13] | MIC [14] | MIC (Moraxella catarrhalis) | MIC [15] | MIC [16] | MIC (Neisseria meningitidis) | MIC [17] | further results |
| --- | --- | --- | --- | --- | --- | --- | --- | --- | --- | --- | --- | --- | --- | --- | --- | --- | --- | --- | --- | --- | --- |
| O=C(O[C@@H]1Cc2c(O)cc(O)cc2O[C@@H]1c1cc(O)c(O)c(O)c1)c1cc(O)c(O)c(O)c1 [EGCG, Epigallocatechin gallate, reference compound] | >128 µg/mL | >128 µg/mL | 128 µg/mL (≈ 279 µM) | >128 µg/mL | >128 µg/mL | 128 µg/mL (≈ 279 µM) | 128 µg/mL (≈ 279 µM) | 128 µg/mL (≈ 279 µM) | 32 µg/mL (≈ 69.8 µM) | 64 µg/mL (≈ 140 µM) | 128 µg/mL (≈ 279 µM) | 64 µg/mL (≈ 140 µM) | 128 µg/mL (≈ 279 µM) | 256 µg/mL (≈ 558 µM) | 64 µg/mL (≈ 140 µM) | 128 µg/mL (≈ 279 µM) | 128 µg/mL (≈ 279 µM) | 128 µg/mL (≈ 279 µM) | 32 µg/mL (≈ 69.8 µM) | >128 µg/mL | – |
| EGCG-dioctanoate [EGCG-C8×2] | 16 µg/mL | 16 µg/mL | 4 µg/mL | 16 µg/mL | 16 µg/mL | – | 32 µg/mL | 64 µg/mL | 16 µg/mL | 32 µg/mL | 64 µg/mL | 16 µg/mL | 64 µg/mL | 64 µg/mL | 32 µg/mL | 32 µg/mL | 64 µg/mL | 64 µg/mL | 16 µg/mL | 16 µg/mL | – |
| EGCG-linolate [EGCG-C18DE] | 16 µg/mL | 16 µg/mL | 16 µg/mL | 16 µg/mL | 16 µg/mL | – | 64 µg/mL | 64 µg/mL | 16 µg/mL | 32 µg/mL | 64 µg/mL | 32 µg/mL | 64 µg/mL | 64 µg/mL | 32 µg/mL | 64 µg/mL | 64 µg/mL | 64 µg/mL | 16 µg/mL | 32 µg/mL | – |
| EGCG-oleate [EGCG-C18E] | 32 µg/mL | 32 µg/mL | 16 µg/mL | 32 µg/mL | 16 µg/mL | – | 64 µg/mL | 64 µg/mL | 16 µg/mL | 32 µg/mL | 64 µg/mL | 32 µg/mL | 64 µg/mL | >64 µg/mL | 32 µg/mL | 32 µg/mL | 64 µg/mL | 64 µg/mL | 16 µg/mL | 32 µg/mL | – |
| EGCG-palmitate [EGCG-C16] | 16 µg/mL | 16 µg/mL | 8 µg/mL | 16 µg/mL | 16 µg/mL | 8 µg/mL | 64 µg/mL | 64 µg/mL | 16 µg/mL | 16 µg/mL | 64 µg/mL | 32 µg/mL | 32 µg/mL | 16 µg/mL | 32 µg/mL | 64 µg/mL | 64 µg/mL | 64 µg/mL | 16 µg/mL | 16 µg/mL | antibacterial effect [12]: strongest antibacterial effect |
| EGCG-palmitoleate [EGCG-C16E] | 16 µg/mL | 16 µg/mL | 16 µg/mL | 16 µg/mL | 16 µg/mL | – | 64 µg/mL | 64 µg/mL | 16 µg/mL | 16 µg/mL | 64 µg/mL | 32 µg/mL | 64 µg/mL | 64 µg/mL | 32 µg/mL | 64 µg/mL | 64 µg/mL | 64 µg/mL | 16 µg/mL | 16 µg/mL | – |
| EGCG-stearate [EGCG-C18] | 32 µg/mL | 32 µg/mL | 16 µg/mL | 32 µg/mL | 32 µg/mL | 16 µg/mL | 64 µg/mL | 64 µg/mL | – | 32 µg/mL | 64 µg/mL | 32 µg/mL | 32 µg/mL | 32 µg/mL | 32 µg/mL | 64 µg/mL | 64 µg/mL | 64 µg/mL | 16 µg/mL | 32 µg/mL | antibacterial effect [12]: strongest antibacterial effect |
| EGCG-α-linoleate [EGCG-C18TE] | 16 µg/mL | 16 µg/mL | 4 µg/mL | 16 µg/mL | 16 µg/mL | – | 64 µg/mL | 64 µg/mL | 16 µg/mL | 32 µg/mL | 64 µg/mL | 32 µg/mL | 64 µg/mL | 64 µg/mL | 32 µg/mL | 32 µg/mL | 64 µg/mL | 64 µg/mL | 16 µg/mL | 16 µg/mL | – |
